Drawing on DBAASP, this text covers MIC for seven compounds.

Among the test systems are Botrytis cinerea; Cladosporium herbarum; Alternaria alternata; Escherichia coli K91BK.
Holding throughout (assay): ≥ marks a high value that may be exact or a test limit, other limits are often not marked, values filed in µg/mL are converted to µM
Assay [1] relates to Clavibacter michiganensis subsp. michiganensis DSM 46294.
For assay [2], the system named is Pectobacterium carotovorum subsp. carotovorum DSM 30168.
Assay [3] has as its system Xanthomonas vesicatoria DSM 50861.
For assay [4], the system named is Pseudomonas syringae pv. tomato DC3000.
The subject of assay [5] is Pseudomonas corrugata DSM 7228.
Assay [6] deals with Pseudomonas syringae pv. syringae DSM 10604.
The test system of assay [7] is Escherichia coli IFO 3972.
For assay [8], the system named is Staphylococcus aureus FDA 209P.
The test system of assay [9] is Streptococcus pneumoniae DSM 11865.
Assay [10] concerns Staphylococcus aureus ATCC 25923.
Assay [11] deals with Escherichia coli DSM 1103.
In assay [12] the test system is Klebsiella pneumoniae DSM 681.
Assay [13] has as its system Pseudomonas aeruginosa DSM 1128.
In assay [14] the test system is Pseudomonas aeruginosa KCTC 1637.
Assay [15] relates to Staphylococcus aureus CCARM 3114.
For assay [16], the system named is Escherichia coli CCARM 1229.
For assay [17], the system named is Staphylococcus aureus KCTC 1621.
Assay [18] deals with Escherichia coli KCTC 1682.
For assay [19], the system named is Staphylococcus epidermidis KCTC 1917.
The test system of assay [20] is Staphylococcus aureus CCARM 3089.
Assay [21] deals with Salmonella typhimurium KCTC 1926.
The test system of assay [22] is Salmonella typhimurium CCARM 8003.
In assay [23] the test system is Bacillus subtilis KCTC 3068.
For assay [24], the system named is Escherichia coli CCARM 1238.
Assay [25] relates to Candida albicans ATCC 90028.
Assay [26] concerns Trichosporon beigelii KCTC 7707.
Assay [27] has as its system Candida parapsilosis ATCC 22019.
For assay [28], the system named is Malassezia furfur KCTC 7744.
Assay [29] concerns Bacillus subtilis ATCC 6633.
Assay [30] relates to Escherichia coli ATCC 10536.
Assay [31] has as its system Staphylococcus aureus ATCC 9144.
Assay [32] concerns Escherichia coli DH5alpha.
For assay [33], the system named is Bacillus subtilis var. niger ATCC 9372.
The subject of assay [34] is Bacillus anthracis Sterne 34F2.

Each structure is given as a SMILES string. In brackets after ≈: the same amount, converted by molar mass.

As to `CC(C)C[C@H](NC(=O)[C@H](C)NC(=O)[C@H](CCCCN)NC(=O)[C@@H](N)CC(C)C)C(=O)N[C@@H](CCCN=C(N)N)C(=O)N[C@@H](CCCCN)C(=O)N[C@@H](C)C(=O)N[C@@H](CC(C)C)C(=O)N[C@@H](CCCCN)C(=O)N[C@@H](Cc1cnc[nH]1)C(=O)N[C@@H](CC(C)C)C(=O)N[C@@H](C)C(N)=O` [LKALRKALKHLA], the MIC in [1] was 29.4 µM (≈ 40 µg/mL); against Botrytis cinerea, no less than 73.4 µM; in [2], 29.4 µM (≈ 40 µg/mL); in assay [3], 14.7 µM (≈ 20 µg/mL); in assay [4], 1.84 µM (≈ 2.5 µg/mL); against Cladosporium herbarum, 14.7 µM (≈ 20 µg/mL). For the same compound, the MIC is 29.4 µM (≈ 40 µg/mL) in assay [5], no less than 73.4 µM against Alternaria alternata and 7.34 µM (≈ 9.99 µg/mL) in assay [6].
In the case of `NCCCC[C@H](NC(=O)[C@H](CCCN=C(N)N)NC(=O)[C@H](CCCN=C(N)N)NC(=O)[C@H](CCCN=C(N)N)NC(=O)[C@@H]1CCCN1)C(=O)O` [PRRRK], the MIC in assay [7] and in [8] was no less than 500 µM throughout.
In the case of `CC[C@H](C)[C@H](NC(=O)[C@H](CCC(N)=O)NC(=O)[C@H](CCC(=O)O)NC(=O)[C@H](CCC(=O)O)NC(=O)[C@H](CCCCN)NC(=O)[C@@H]1CCCN1C(=O)[C@H](CC(C)C)NC(=O)[C@H](C)NC(=O)[C@H](CO)NC(=O)[C@H](CC(C)C)NC(=O)[C@@H](NC(=O)[C@H](C)N)C(C)C)C(=O)NCC(=O)N[C@@H](CCCCN)C(=O)N[C@@H](C)C(=O)N[C@@H](CO)C(=O)N[C@H](C(=O)N[C@@H](CCCN=C(N)N)C(=O)NCC(=O)N[C@@H](CCCN=C(N)N)C(=O)N[C@@H](CCCCN)C(=O)N[C@@H](C)C(=O)N[C@@H](C)C(=O)N[C@@H](CCCN=C(N)N)C(=O)N[C@@H](CCCN=C(N)N)C(=O)N[C@@H](CCCCN)C(=O)N[C@@H](CCCCN)C(=O)O)[C@@H](C)O` [AVLSALPKEEQIGKASTRGRKAARRKK], the MIC is no less than 102 µM in assay [9]; greater than 102 µM in assay [10]; no less than 102 µM in [11]; no less than 102 µM in assay [12]; no less than 102 µM in assay [13].
Consider `CC[C@H](C)[C@H](NC(=O)[C@H](C)NC(=O)[C@H](CC(C)C)NC(=O)[C@H](Cc1c[nH]c2ccccc12)NC(=O)[C@H](CC(C)C)NC(=O)[C@@H](N)CCCN=C(N)N)C(=O)NCC(=O)N[C@@H](CCCN=C(N)N)C(=O)NCC(N)=O` [RLWLAIGRG], for which the MIC in assay [14] was no less than 32 µM; in assay [15], no less than 32 µM; in [16] it was 16 µM (≈ 16.6 µg/mL); in [17] it was 16 µM (≈ 16.6 µg/mL); in assay [18] it was 8 µM (≈ 8.32 µg/mL); in assay [19] it was 4 µM (≈ 4.16 µg/mL). In addition, the MIC in assay [20] is 16 µM (≈ 16.6 µg/mL); in [21] it was no less than 32 µM; in assay [22], no less than 32 µM; in assay [23] it was 8 µM (≈ 8.32 µg/mL); in assay [24] it was 8 µM (≈ 8.32 µg/mL).
In the case of `CC[C@H](C)[C@H](NC(=O)[C@H](C)NC(=O)[C@H](CCCCN)NC(=O)[C@H](CCCN=C(N)N)NC(=O)[C@H](CS)NC(=O)[C@H](CCCN=C(N)N)NC(=O)[C@H](CCCCN)NC(=O)[C@@H](NC(=O)[C@H](CC(N)=O)NC(=O)[C@H](CCCN=C(N)N)NC(=O)[C@H](CCC(=O)O)NC(=O)[C@H](CS)NC(=O)[C@H](CO)NC(=O)[C@@H](NC(=O)[C@H](CCCCN)NC(=O)[C@H](Cc1cnc[nH]1)NC(=O)[C@H](CC(N)=O)NC(=O)CNC(=O)[C@H](CC(C)C)NC(=O)[C@H](CCCCN)NC(=O)[C@H](CCCCN)NC(=O)[C@H](CCSC)NC(=O)[C@@H](N)CCCN=C(N)N)C(C)C)[C@@H](C)O)C(=O)O` [RMKKLGNHKVSCERNTKRCRKAI], the MIC in assay [25] came to 10 µM (≈ 27.6 µg/mL); in assay [26], 20 µM (≈ 55.1 µg/mL); in assay [27], 10 µM (≈ 27.6 µg/mL); in [28], 14.1 µM (≈ 39 µg/mL).
For the compound `CC[C@H](C)[C@H](NC(=O)[C@H](CCCN=C(N)N)NC(=O)[C@@H](NC(=O)[C@@H](NC(=O)[C@@H]1CCCN1C(=O)[C@@H](NC(=O)[C@@H](NC(=O)[C@H](C)NC(=O)[C@@H]1CCCN1C(=O)CNC(=O)[C@H](Cc1ccc(O)cc1)NC(=O)[C@H](CCCCN)NC(=O)[C@H](CCCCN)NC(=O)[C@H](Cc1c[nH]c2ccccc12)NC(=O)[C@H](C)NC(=O)[C@H](CCCN=C(N)N)NC(=O)[C@H](CC(C)C)NC(=O)[C@@H](NC(=O)[C@H](CCCCN)NC(=O)[C@H](CCCN=C(N)N)NC(=O)CNC(=O)[C@H](CC(C)C)NC(=O)[C@H](CO)NC(=O)[C@H](CCCN=C(N)N)NC(=O)[C@H](CC(C)C)NC(=O)CNC(=O)CN)[C@@H](C)CC)[C@@H](C)CC)C(C)C)[C@@H](C)CC)[C@@H](C)CC)C(N)=O` [GGLRSLGRKILRAWKKYGPAIVPIIRI], the MIC stood at 1.7 µM (≈ 5.15 µg/mL) in [29], 2.5 µM (≈ 7.58 µg/mL) in assay [30], 3.8 µM (≈ 11.5 µg/mL) in assay [31] and 2.7 µM (≈ 8.19 µg/mL) in [32].
For the compound `CC(=O)N[C@@H](CCCN=C(N)N)C(=O)NCC(=O)N[C@@H](CCCN=C(N)N)C(=O)NCC(=O)N[C@@H](CCCCN)C(=O)N[C@@H](CCC(N)=O)C(=O)NCC(=O)NCC(=O)N[C@@H](CCCCN)C(=O)N[C@H](C(=O)N[C@@H](CCCN=C(N)N)C(=O)N[C@@H](C)C(=O)N[C@@H](CCCCN)C(=O)N[C@@H](C)C(=O)N[C@@H](CCCCN)C(=O)N[C@H](C(=O)N[C@@H](CCCN=C(N)N)C(=O)N[C@@H](CO)C(=O)N[C@@H](CO)C(N)=O)[C@@H](C)O)C(C)C` [RGRGKQGGKVRAKAKTRSS], the MIC (against Escherichia coli K91BK; in assay [33]; in [34]) was no less than 100 µM throughout.

For orientation: MIC means the lowest concentration found to suppress growth. Read a low MIC as inhibition by little substance.
